The record followed here is patent US9216991B2 (Ares Trading S.A., priority 2012, dated 2015).

Where a name gives a salt, the structure may show the parent alone.

This assay has as its target T1, IRAK4 (Homo sapiens, UniProt Q9NWZ3).
T1 construct: His (N); TEV cleavage site (N)
T1 sequence (Q9NWZ3 1-460): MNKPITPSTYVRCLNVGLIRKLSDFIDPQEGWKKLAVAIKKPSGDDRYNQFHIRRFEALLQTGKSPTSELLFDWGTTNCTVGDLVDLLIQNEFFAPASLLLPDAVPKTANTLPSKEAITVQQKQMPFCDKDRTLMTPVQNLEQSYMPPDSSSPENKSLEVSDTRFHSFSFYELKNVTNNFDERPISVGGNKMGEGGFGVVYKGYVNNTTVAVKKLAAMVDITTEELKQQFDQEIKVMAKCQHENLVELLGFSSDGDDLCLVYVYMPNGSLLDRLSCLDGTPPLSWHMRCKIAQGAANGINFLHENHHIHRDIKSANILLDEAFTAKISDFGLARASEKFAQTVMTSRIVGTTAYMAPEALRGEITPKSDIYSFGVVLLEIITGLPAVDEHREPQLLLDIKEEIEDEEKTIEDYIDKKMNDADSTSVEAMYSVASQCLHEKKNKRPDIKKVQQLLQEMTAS
Put plainly: IRAK4 Enzymatic Assay. The class given is biochemical. To be noted: His-TEV-IRAK4 20 ng/well, ATP 2 μM, STK1-biotin peptide 300 nM, 3 hours at 30° C., FlashPlate radioactivity. In short, it runs like this:
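Recombinant His-TEV-tagged IRAK4 (20 ng/well) phosphorylates biotinylated STK1 peptide (300 nM) with 2 μM ATP plus [^33P]ATP, 3 h at 30 °C in pH 7.0 HEPES buffer with MgCl2 and MnCl2; compounds tested 20 μM to 1 nM. Reaction stopped with EDTA; incorporated radioactivity counted on streptavidin FlashPlates.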
Broadly, the IC50 is the concentration that inhibits the measured activity by half. Take `Cn1cc(-c2cccc(-c3ncc(-c4cnn(C5CCNCC5)c4)cn3)c2F)cn1` [Example 48, 2-[2-Fluoro-3-(1-methyl-1H-pyrazol-4-yl)-phenyl]-5-(1-piperidin-4-yl-1H-pyrazol-4-yl)-pyrimidine Formate]: the IC50 is 1000 to 5000 nM. Then `Cn1cc(-c2cccc(-c3ncc(-c4cnn(C[C@@H]5CCCN5)c4)cn3)c2)cn1` [Example 70, 2-[3-(1-Methyl-1H-pyrazol-4-yl)-phenyl]-5-(1-(S)-1-pyrrolidin-2-ylmethyl-1H-pyrazol-4-yl)-pyrimidine hydrochloride], with 1000 to 5000 nM. In the case of `CC(C)N(C)C(=O)[C@H]1CC[C@H](n2cc(-c3cnc(-c4cccc(-c5cnn(C)c5)c4)nc3)cn2)CC1` [Example 200, Trans-4-(4-{2-[3-(1-Methyl-1H-pyrazol-4-yl)-phenyl]-pyrimidin-5-yl}-pyrazol-1-yl)-cyclohexanecarboxylic acid isopropyl-methyl-amide], the IC50 is under 100 nM. In the case of `Cn1cc(-c2cccc(-c3ncc(-c4cnn(C5C[C@H]6CC[C@@H](C5)N6)c4)cn3)c2)cn1` (stereo partly drawn) [Example 110, (1R,5S)-3-(4-{2-[3-(1-Methyl-1H-pyrazol-4-yl)-phenyl]-pyrimidin-5-yl}-pyrazol-1-yl)-8-aza-bicyclo[3.2.1]octane], the concentration for half-maximal inhibition (IC50) is 100 to 1000 nM.

Turning to `Cn1cc(-c2cccc(-c3ncc(-c4cnn([C@H]5CC[C@H](OCC6CC6)CC5)c4)cn3)c2)cn1` [Example 220, trans-5-[1-(4-Cyclopropylmethoxy-cyclohexyl)-1H-pyrazol-4-yl]-2-[3-(1-methyl-1H-pyrazol-4-yl)-phenyl]-pyrimidine], the IC50 was under 100 nM. `Cn1cc(-c2cccc(-c3ncc(-c4cn(C5CCOCC5)nc4C(=O)O)cn3)c2)cn1` [Example 140, 4-{2-[3-(1-Methyl-1H-pyrazol-4-yl)-phenyl]-pyrimidin-5-yl}-1-(tetrahydro-pyran-4-yl)-1H-pyrazole-3-carboxylic acid]: the IC50 is 1000 to 5000 nM. Then `CC(=O)N[C@H]1CC[C@@H](n2cc(-c3cnc(-c4cccc(-c5cnn(C)c5)c4)nc3)cn2)CC1` [Example 161, Cis-N-[4-(4-{2-[3-(1-Methyl-1H-pyrazol-4-yl)-phenyl]-pyrimidin-5-yl}-pyrazol-1-yl)-cyclohexyl]-acetamide], with under 100 nM. Then `NCCn1cc(-c2cccc(-c3ncc(-c4cnn(CC(=O)N5CCCC5)c4)cn3)c2)cn1` [Example 50, 2-[4-(2-{3-[1-(2-Amino-ethyl)-1H-pyrazol-4-yl]-phenyl}-pyrimidin-5-yl)-pyrazol-1-yl]-1-pyrrolidin-1-yl-ethanone hydrochloride], with 1000 to 5000 nM. Then `COCC(C)NC(=O)Cn1cc(-c2cnc(-c3cccc(-c4cnn(C)c4)c3)nc2)cn1` (centres unmarked) [Example 63], with 100 to 1000 nM; and `CCCn1cc(-c2cccc(-c3ncc(-c4cnn(C5CCNCC5)c4)cn3)c2)cn1` [Example 19, 5-(1-Piperidin-4-yl-1H-pyrazol-4-yl)-2-[3-(1-propyl-1H-pyrazol-4-yl)-phenyl]-pyrimidine hydrochloride], with 100 to 1000 nM; and `Cn1cc(-c2cccc(-c3ncc(-c4cnn([C@@H]5CCCN(S(C)(=O)=O)C5)c4)cn3)c2)cn1` [Example 268, 5-[(R)-1-(1-Methanesulfonyl-piperidin-3-yl)-1H-pyrazol-4-yl]-2-[3-(1-methyl-1H-pyrazol-4-yl)-phenyl]-pyrimidine], with under 100 nM. As to `CN(C)C(=O)[C@H]1CC[C@H](n2cc(-c3cnc(-c4cccc(-c5cnn(C)c5)c4)nc3)cn2)CC1` [Example 134, Trans-4-(4-{2-[3-(1-Methyl-1H-pyrazol-4-yl)-phenyl]-pyrimidin-5-yl}-pyrazol-1-yl)-cyclohexanecarboxylic acid dimethylamide], the IC50 is under 100 nM. Regarding `Cn1cc(-c2cccc(-c3ncc(-c4cnn([C@H]5CC[C@]6(CCC(=O)N6)CC5)c4)cn3)c2)cn1` [Example 250, cis-8-(4-{2-[3-(1-Methyl-1H-pyrazol-4-yl)-phenyl]-pyrimidin-5-yl}-pyrazol-1-yl)-1-aza-spiro[4.5]decan-2-one], the half-inhibitory concentration (IC50) is under 100 nM. Then `CN(C)C(=O)CCn1cc(-c2cnc(-c3cccc(-c4cnn(C)c4)c3)nc2)cn1` [Example 85, N,N-Dimethyl-3-(4-{2-[3-(1-methyl-1H-pyrazol-4-yl)-phenyl]-pyrimidin-5-yl}-pyrazol-1-yl)-propionamide], with 100 to 1000 nM; and `CN(C)C(=O)C1CCC(n2cc(-c3cnc(-c4cccc(-c5cnn(C)c5)c4)nc3)cn2)CC1` (mixture of isomers) [Example 121, 4-(4-{2-[3-(1-Methyl-1H-pyrazol-4-yl)-phenyl]-pyrimidin-5-yl}-pyrazol-1-yl)-cyclohexanecarboxylic acid dimethylamide], with under 100 nM. Then `CN(C)C(=O)[C@H]1CC[C@H](n2cc(-c3cnc(-c4cccc(-c5ccc(Cl)nn5)c4)nc3)cn2)CC1` [Example 234, Trans-4-(4-{2-[3-(6-Chloro-pyridazin-3-yl)-phenyl]-pyrimidin-5-yl}-pyrazol-1-yl)-cyclohexanecarboxylic acid dimethylamide], with 1000 to 5000 nM. Then `CC(=O)N1[C@@H]2COC[C@H]1C[C@H](n1cc(-c3cnc(-c4cccc(-c5cnn(C)c5)c4)nc3)cn1)C2` [Example 193, exo-1-[7-(4-{2-[3-(1-Methyl-1H-pyrazol-4-yl)-phenyl]-pyrimidin-5-yl}-pyrazol-1-yl)-3-oxa-9-aza-bicyclo[3.3.1]non-9-yl]-ethanone], with 100 to 1000 nM. As for `CC(C)OCC(CO)n1cc(-c2cnc(-c3cccc(-c4cnn(C)c4)c3)nc2)cn1` (centres unmarked) [Example 214, 3-Isopropoxy-2-(4-{2-[3-(1-methyl-1H-pyrazol-4-yl)-phenyl]-pyrimidin-5-yl}-pyrazol-1-yl)-propan-1-ol], the IC50 was 1000 to 5000 nM. Then `COCC(C)NC(=O)[C@H]1CC[C@H](n2cc(-c3cnc(-c4cccc(-c5cnn(C)c5)c4)nc3)cn2)CC1` (some centres unmarked) [Example 178, 4-(4-{2-[3-(1-Methyl-1H-pyrazol-4-yl)-phenyl]-pyrimidin-5-yl}-pyrazol-1-yl)-cyclohexanecarboxylic acid (2-methoxy-1-methyl-ethyl)-amide], with under 100 nM; and `CC(=O)N1CC[C@@H](n2cc(-c3cnc(-c4cccc(-c5cnn(C)c5)c4)nc3)cn2)[C@H](O)C1` (single isomer, unassigned) [Example 201], with 100 to 1000 nM.

With `CN(CCO)C(=O)[C@H]1CC[C@H](n2cc(-c3cnc(-c4cccc(-c5cnn(C)c5)c4)nc3)cn2)CC1` [Example 185, trans-4-(4-{2-[3-(1-Methyl-1H-pyrazol-4-yl)-phenyl]-pyrimidin-5-yl}-pyrazol-1-yl)-cyclohexanecarboxylic acid (2-hydroxy-ethyl)-methyl-amide], the IC50 is under 100 nM.

For the compound `Cn1cc(-c2cccc(-c3ncc(-c4cnn(C5CCC(C(=O)N6CCO[C@H](CO)C6)CC5)c4)cn3)c2)cn1` (stereo partly drawn) [Example 261, ((S)-2-Hydroxymethyl-morpholin-4-yl)-[4-((S)-4-{2-[3-(1-methyl-1H-pyrazol-4-yl)-phenyl]-pyrimidin-5-yl}-pyrazol-1-yl)-cyclohexyl]-methanone], the half-inhibitory concentration (IC50) was under 100 nM. Then `CC(=O)N1CCCC(n2cc(-c3cnc(-c4cccc(-c5cnn(C)c5)c4)nc3)cn2)C1` (stereo in doubt) [Example 274, 1-[3-((R)-4-{2-[3-(1-Methyl-1H-pyrazol-4-yl)-phenyl]-pyrimidin-5-yl}-pyrazol-1-yl)-piperidin-1-yl]-ethanone], with under 100 nM.

For the compound `Cn1cc(-c2cccc(-c3ncc(-c4cn(C)nc4CO)cn3)c2)cn1` [Example 155, (1-Methyl-4-{2-[3-(1-methyl-1H-pyrazol-4-yl)-phenyl]-pyrimidin-5-yl}-1H-pyrazol-3-yl)-methanol], the half-maximal inhibitory concentration (IC50) fell in the range of 1000 to 5000 nM.

As for `Cn1cc(-c2cccc(-c3ncc(-c4cnn([C@H]5CC[C@H](NCCO)CC5)c4)cn3)c2)cn1` [Example 289, 2-trans-[4-(4-{2-[3-(1-Methyl-1H-pyrazol-4-yl)-phenyl]-pyrimidin-5-yl}-pyrazol-1-yl)-cyclohexylamino]-ethano], the IC50 is under 100 nM. Turning to `Cc1cc(-c2cccc(-c3ncc(-c4cnn([C@H]5CC[C@H](C(=O)N(C)C)CC5)c4)cn3)c2)ccn1` [Example 229, Trans-4-(4-{2-[3-(2-Methyl-pyridin-4-yl)-phenyl]-pyrimidin-5-yl}-pyrazol-1-yl)-cyclohexanecarboxylic acid dimethylamide], the IC50 was 100 to 1000 nM. Then `Nc1cc(-c2cccc(-c3ncc(-c4cnn(C5CCOCC5)c4)cn3)c2)ccn1` [Example 136, 4-(3-{5-[1-(Tetrahydro-pyran-4-yl)-1H-pyrazol-4-yl]-pyrimidin-2-yl}-phenyl)-pyridin-2-ylamine], with 100 to 1000 nM; and `Cn1cc(-c2cccc(-c3ncc(-c4cnn(CCNS(C)(=O)=O)c4)cn3)c2)cn1` [Example 210, N-[2-(4-{2-[3-(1-Methyl-1H-pyrazol-4-yl)-phenyl]-pyrimidin-5-yl}-pyrazol-1-yl)-ethyl]-methanesulfonamide], with 1000 to 5000 nM; and `CCC(CO)NC(=O)Cn1cc(-c2cnc(-c3cccc(-c4cnn(C)c4)c3)nc2)cn1` (centres unmarked) [Example 60, N-(1-Hydroxymethyl-propyl)-2-(4-{2-[3-(1-methyl-1H-pyrazol-4-yl)-phenyl]-pyrimidin-5-yl}-pyrazol-1-yl)-acetamide], with 1000 to 5000 nM.
